Results: patent US8710232B2, “Imidazole derivatives used as TAFIa inhibitors” (Sanofi-Aventis Deutschland GmbH, priority 2004, dated 2014)
pIC50: −log10 of the molar value.

Target: TAFIa (Homo sapiens (Human), UniProt Q96IY4)
Experiment: TAFIa enzyme assay (Actichrome plasma TAFI activity kit)
Assay type: biochemical
Conditions: 15 min preincubation at room temperature, read at 420 nm, duplicate determination
Protocol: The prepared substances were tested for TAFIa inhibition using the Actichrome plasma TAFI activity kit from American Diagnostica (Pr. No. 874). This entailed adding 29 μl of assay buffer (20 mM Hepes, 150 mM NaCl, pH 7.4) and 10 μl of TAFIa (American Diagnostica Pr. No. 874TAFIA; […]) to 1 μl of 5 mM DMSO solution of the substance and incubating in a 96 half-well microtiter plate at room temperature for 15 minutes. The enzymic reaction was started by adding 10 μl of TAFIa developer (prediluted 1:2 with water). The time course of the reaction was followed at 420 nm in a microtiter plate reader (SpectraMax plus 384; Molecular Devices) for 15 minutes. The IC50 was calculated from the averaged values (duplicate determination) of serial dilutions of the substance with the aid of the Grafit 4 software (Erithacus Software, UK).

Sequence of TAFIa (Q96IY4 115-423): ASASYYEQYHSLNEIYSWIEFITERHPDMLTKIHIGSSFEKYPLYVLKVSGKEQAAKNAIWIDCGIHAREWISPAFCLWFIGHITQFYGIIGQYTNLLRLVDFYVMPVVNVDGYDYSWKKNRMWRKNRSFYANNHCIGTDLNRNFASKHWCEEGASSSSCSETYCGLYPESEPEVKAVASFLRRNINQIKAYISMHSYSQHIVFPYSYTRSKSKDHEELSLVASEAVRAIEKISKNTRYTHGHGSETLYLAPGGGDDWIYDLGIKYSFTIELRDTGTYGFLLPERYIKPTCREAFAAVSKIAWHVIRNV

Structure (SMILES) | pIC50
Nc1ccc(CC(C(=O)O)c2cn(CCC3CCN(C(=O)CCc4ccccc4)CC3)cn2)cn1 (stereo not drawn) [Example 18, 3-(6-Aminopyridin-3-yl)-2-(1-{2-[1-(3-phenylpropionyl)piperidin-4-yl]ethyl}1H-imidazol-4-yl)propionic acid] | 7.68
Cc1ccc(S(=O)(=O)Nc2ccc(-n3cnc(C(Cc4ccc(N)nc4)C(=O)O)c3)cc2)cc1 (stereo not drawn) [Example 38] | 7.30
Nc1ccc(CC(C(=O)O)c2cn(Cc3ccc(OC(F)(F)F)cc3)cn2)cn1 (stereo not drawn) [Example 25, 3-(6-Aminopyridin-3-yl)-2-[1-(4-trifluoromethoxybenzyl)-1H-imidazol-4-yl]propionic acid] | 4.98
Nc1ccc(CC(C(=O)O)c2cn(C3CCCCC3)cn2)cn1 (stereo not drawn) [Example 1, 3-(6-Aminopyridin-3-yl)-2-(1-cyclohexyl-1H-imidazol-4-yl)propionic acid] | 7.52
Nc1ccc(CC(C(=O)O)c2cn(Cc3cccc(Oc4ccc(F)cc4)c3)cn2)cn1 (stereo not drawn) [Example 28, 3-(6-Aminopyridin-3-yl)-2-{1-[3-(4-fluorophenoxy)benzyl]-1H-imidazol-4-yl}propionic acid] | 5.84
Nc1ccc(CC(C(=O)O)c2cn(C3CCNCC3)cn2)cn1 (stereo not drawn) [Example 8, 3-(6-Aminopyridin-3-yl)-2-(1-piperidin-4-yl-1H-imidazol-4-yl)propionic acid] | 5.95
Nc1ccc(CC(C(=O)O)c2cn(CCC3CCCN(C(=O)CCc4ccccc4)C3)cn2)cn1 (stereo not drawn) [Example 16, 3-(6-Aminopyridin-3-yl)-2-(1-{2-[1-(3-phenylpropionyl)piperidin-3-yl]ethyl}-1H-imidazol-4-yl)propionic acid] | 7.42
CCCNC(=O)Nc1ccc(-n2cnc(C(Cc3ccc(N)nc3)C(=O)O)c2)cc1 (stereo not drawn) [Example 37, 3-(6-Aminopyridin-3-yl)-2-{1-[4-(3-propylureido)phenyl]-1H-imidazol-4-yl}propionic acid] | 7.31
Nc1ccc(CC(C(=O)O)c2cn(CC(=O)NC(c3ccccc3)c3ccccc3)cn2)cn1 (stereo not drawn) [Example 10, 3-(6-Aminopyridin-3-yl)-2-{1-[(benzhydrylcarbamoyl)methyl]-1H-imidazol-4-yl}-propionic acid] | 7.64
Nc1ccc(CC(C(=O)O)c2cn(Cc3csc4ccc(Cl)cc34)cn2)cn1 (stereo not drawn) [Example 27, 3-(6-Aminopyridin-3-yl)-2-[1-(5-chlorobenzo[b]thiophen-3-ylmethyl)-1H-imidazol-4-yl]-propionic acid] | 5.95
Nc1ccc(CC(C(=O)O)c2cn(C3CCN(c4ccccc4)C3=O)cn2)cn1 (stereo not drawn) [Example 9, 3-(6-Aminopyridin-3-yl)-2-[1-(2-oxo-1-phenylpyrrolidin-3-yl)-1H-imidazol-4-yl]propionic acid] | 6.36
C#CCn1cnc(C(Cc2ccc(N)nc2)C(=O)O)c1 (stereo not drawn) [Example 31, 3-(6-Aminopyridin-3-yl)-2-(1-prop-2-ynyl-1H-imidazol-4-yl)propionic acid] | 6.06

Compounds with a higher pIC50, results first:

pIC50 | Structure (SMILES)
7.82 | Nc1ccc(CC(C(=O)O)c2cn(-c3ccc(NC(=O)Nc4ccccc4)cc3)cn2)cn1 (stereo not drawn) [Example 12, 3-(6-Aminopyridin-3-yl)-2-{1-[4-(3-phenylureido)phenyl]-1H-imidazol-4-yl}propionic acid]
7.92 | Nc1ccc(CC(C(=O)O)c2cn(CC3CCCCN3C(=O)c3ccccc3)cn2)cn1 (stereo not drawn) [Example 15, 3-(6-Aminopyridin-3-yl)-2-[1-(1-benzoylpiperidin-2-ylmethyl)-1H-imidazol-4-yl]propionic acid]
7.80 | Nc1ccc(CC(C(=O)O)c2cn(C3CCCC3)cn2)cn1 (stereo not drawn) [Example 7, 3-(6-Aminopyridin-3-yl)-2-(1-cyclopentyl-1H-imidazol-4-yl)propionic acid]
7.92 | Nc1ccc(CC(C(=O)O)c2cn(CCC3CCN(C(=O)C(c4ccccc4)c4ccccc4)CC3)cn2)cn1 (stereo not drawn) [Example 13, 3-(6-Aminopyridin-3-yl)-2-{1-[2-(1-diphenylacetylpiperidin-4-yl)ethyl]-1H-imidazol-4-yl}-propionic acid]
8.52 | CC1(C)CCC(n2cnc(C(Cc3ccc(N)nc3)C(=O)O)c2)CC1 (stereo not drawn) [Example 33, 3-(6-Aminopyridin-3-yl)-2-[1-(4,4-dimethylcyclohexyl)-1H-imidazol-4-yl]propionic acid]
7.96 | Nc1ccc(CC(C(=O)O)c2cn(CC3CCCN(C(=O)C(c4ccccc4)c4ccccc4)C3)cn2)cn1 (stereo not drawn) [Example 17, 3-(6-Aminopyridin-3-yl)-2-[1-(1-diphenylacetylpiperidin-3-ylmethyl)-1H-imidazol-4-yl]-propionic acid]
